Source: US10065965B2, “Imidazo[1,2-B][1,2,4]triazine derivatives as antiparasitic agents” (GlaxoSmithKline Intellectual Property Development Limited, priority 2015, dated 2018)
≈ marks a conversion by molar mass, not a printed value.

Tests used:
Trypanosoma cruzi [1] = experiment: Assay 2 Trypanosoma cruzi intracellular assay (infected Vero cells); format: cell-based; conditions: 72 h, read-out: pEC50 value against Trypanosoma cruzi (converted)
Method: Compounds were dispensed into black 384-well assay plates (Corning) by acoustic dispensing (LabCyte ECHO). For potency determinations, ten-point one in three dilution curves were generated, with a top concentration of 50 μM. Vero cells were infected overnight with T. cruzi trypomastigotes in T225 tissue culture flasks at a multiplicity of infection of 5. Next, any remaining free trypomastigotes were washed away with serum free MEM media and the infected Vero cells were harvested by trypsinisation. The infected Vero cells were then plated into 384-well plates containing the compounds to be tested, at 4000 cells per well in MEM media with 1% FCS. After 72 h incubation at 37° C. in presence of 5% CO2, the plates were fixed with 4% formaldehyde for 20 minutes at room temperature and stained with 5 μg/ml Hoechst 33342. The plates were imaged on a Perkin Elmer Operetta high-content imaging system using a 20× objective. Images were analysed using the Columbus system (Perkin Elmer). The image analysis algorithm first identified the Vero nuclei followed by demarcation of the cytoplasm and identification of intracellular amastigotes. This algorithm reported mean number of parasites per Vero cell and total number of Vero cells.

[2] = Assay 1 intramacrophage Leishmania donovani assay, THP-1 cell count (cytotoxicity readout); format: cell-based; conditions: human, minimum threshold 4.3, read-out: cytotoxicity against THP-1 cells, pEC50 value (converted)
Method: (§1) The intramacrophage Leishmania assay was performed using a modified version of the method described in De Rycker et al. (Antimicrob Agents Chemother. 2013 July; 57(7):2913-22. Comparison of a high-throughput high-content intracellular Leishmania donovani assay with an axenic amastigote assay. De Rycker M, Hallyburton I, Thomas J, Campbell L, Wyllie S, Joshi D, Cameron S, Gilbert I H, Wyatt P G, Frearson J A, Fairlamb A H, Gray D W.). Procedure: 350 nl of compound was pre-dispensed into 384 well sterile intermediary plates. For single point screening, amphotericin B was added to all wells of column 24 as a positive control (final concentration 2 μM) and DMSO to column 23. For potency determinations, ten-point, one in three dilution curves were created with the highest concentration being 50 μM and on each plate a control curve of amphotericin B was included. Controls were as follows: columns 11 and 12: DMSO, columns 23 and 24: amphotericin B (final concentration 2 μM). To the intermediary plates, 35 μl of THP-1 media was added and plates were shaken for >5 min to ensure complete mixing. THP-1 cells (8,000 per well, 50 μl) were plated into black clear-bottom 384 well plates (Corning) in presence of 20 nM PMA. After 20 min at RT, the plates were incubated at 37° C. under 5% CO2 in a humidified incubator for 75 h. The cells were then washed with […] sterile phosphate buffered saline (PBS) supplemented with 1 mM CaCl2, 0.5 mM MgCl2, 0.1% (w/v) bovine serum albumin (PBS-A) and amastigotes were added to all wells at a multiplicity of infection of 5 (40,000 amastigotes per well). After 40 min at RT, plates were returned to the incubator. Amastigotes were incubated in the presence of THP-1 macrophages for 16 h. Any remaining extracellular amastigotes were subsequently removed with an overflow wash of 1 mL PBS-A per well (wash buffer is being aspirated from the top of the well as it is being dispensed) followed by addition of 25 μl of the compound pre-dilutions using a Fluidx Ipette-pro pipetting station. The final dilution of each compound was 200-fold. Plates were incubated for 96 h and then washed (250 μl PBS-A) and fixed (4% (v/v) formaldehyde-PBS, 30 min, RT). After fixation, the wells were washed with 250 μl PBS, stained (10 μg/mL DAPI, 0.4 μg mL-1 HCS Cellmask Deep Red in PBS+0.1% (v/v) Triton X-100, 30 min, RT) and washed with 250 μl PBS. Finally, PBS+0.05% (v/v) thimerosal was added to the wells, the plates were sealed and imaged on a high-content microscope (GE IN Cell 2000) using a 10× objective. Image analysis was carried out with GE IN Cell Analyzer 1000 Workstation using the “Multi Target Analysis” module. Settings for segmentation were as follows: nuclei: minimum area: 142.384 μm2, sensitivity: 81, method: top-hat; cells: characteristic area: 2500 μm2, sensitivity: 60, method: multiscale top-hat; organelles (amastigotes): granule size 1-3, 3 scales, sensitivity: 90, detection in entire cell. For each well, i) THP-1 cell count (cytotoxicity readout) and ii) average number of amastigotes per cell (potency readout) were calculated, both in terms of pEC50 values.

Trypanosoma cruzi [3] = experiment: Assay 6 Trypanosoma cruzi intracellular assay (infected H9C2 cells); format: cell-based; conditions: H9c2, in Rattus norvegicus, 72 h, infected H9C2 rat cardiomyocytes, read-out: pEC50 value against Trypanosoma cruzi (converted)
Method: Compounds were dispensed into black 384-well assay plates (Greiner) by acoustic dispensing (LabCyte ECHO). For potency determinations, eleven-point, one in three dilution curves were generated, with a top concentration of 50 μM. H9C2 rat cardiomyocytes cells were dispensed in T225 tissue culture flasks and after 4 hours they were infected during 18 hours with T. cruzi trypomastigotes in the same T225 tissue culture flasks at a multiplicity of infection of 1. Next, any remaining free trypomastigotes were washed away with PBS and the infected H9C2 cells were harvested by trypsinisation. The infected H9C2 cells were then plated into 384-well plates containing the compounds to be tested, at 2500 cells per well in DMEM media with 2% FBS, 1% Penicillin/Streptomocin, 2 mM L-Glutamine, 1 mM Na Pyruvate and 25 mM HEPES. After 72 h incubation at 37° C. in presence of 5% CO2, the plates were fixed and stained with 4% formaldehyde and 2 μM Draq5 for 3 hours at room temperature. The plates were imaged on a Perkin Elmer Opera high-content imaging system using a 20× air objective. Images were analysed using the Acapella building blocks system (Perkin Elmer). The image analysis algorithm first identified the H9C2 nuclei followed by demarcation of the cytoplasm and identification of intracellular amastigotes. This algorithm reported mean number of parasites per H9C2 cell, the percentage of infected H9C2 cells and the total number of H9C2 cells.

[4] = Assay 4 solubility assay, ChemiLuminescent Nitrogen Detection (CLND); format: physicochemical; conditions: phosphate buffered saline, pH 7.4, aqueous buffer, kinetic from dmso stock, pH 7.4 PBS, from 10 mM DMSO stock, 1 h at room temperature
Method: A 10 mM DMSO stock solution of the compound was prepared. Solvents and Buffers Organic solvents of HPLC grade were used. Ultra pure water (Milli-Q grade) was used. Buffers were prepared with ultra pure water and filtered using 0.45μ cameo filters. Aqueous Buffer Solution: Phosphate Buffer Saline (PBS) @ pH 7.4 was prepared from Sigma dry powder packs, P-3813. Each one was diluted to 1 liter with deionised water. The pH was checked before the solution was used II. Procedures. • a) DMSO concentration was measured. DMSO blanks and ondansetron and caffeine standards were added to the plate (column 12, A, B, C, & D for the blanks and E, F, G, & H for the standards). Plates were covered with foil. When the UV and CLND detectors baselines appeared to be stable, the CLND was zeroed. • b) Once DMSO concentration measurements were complete, a filtration plate was prepared from each parent plate by diluting 5 μl of the 10 mM DMSO stock solution to […] with pH7.4 PBS. • c) After the plates were prepared, they were covered with a plate lid and left to incubate for 1 h at room temperature. • d) Sample was filtered using MILLIPORE MultiScreen Solubility (MSSLBPC10) Filtration Plates, to NUNC V well plates. The filter plate was removed and the NUNC plate was sealed with a power seal plate seal. • e) HPLC/CLND instruments were set up and left to equilibrate. Mobile phases (MeOH:H2O 1:1, flow rate: 0.2 ml/min, sensitivity z10, Gain High). The samples were run. • f) The assay curve fit was done by linear regression and solubility values were reported in μM.

Leishmania donovani = experiment: Assay 1 intramacrophage Leishmania donovani assay (potency readout); format: cell-based; conditions: amastigotes in PMA-treated THP-1 macrophages, 96 h, average number of amastigotes per cell, minimum threshold 4.3, read-out: pEC50 value against Leishmania donovani (converted)
Method: as §1

| Structure (SMILES) | EC50 (Trypanosoma cruzi [1]) [nM] | EC50 at 96 h [2] [nM] | EC50 (Trypanosoma cruzi [3]) [nM] | solubility at 1 h [4] [µM] | EC50 (Leishmania donovani) [nM] |
| --- | --- | --- | --- | --- | --- |
| O=C(Nc1ccc(F)c(-c2cn3nccnc3n2)c1)N1CCCC1 [Example 8, N-(4-fluoro-3-(imidazo[1,2-b][1,2,4]triazin-6-yl)phenyl)pyrrolidine-1-carboxamide] | 20 to 251 | – | – | – | – |
| CN1CCN(Cc2ccc(-c3cnc4nc(-c5cc(NC(=O)N6CCCC6)ccc5F)cn4n3)cc2)CC1 [Example 59, N-(4-fluoro-3-(2-(4-((4-methylpiperazin-1-yl)methyl)phenyl)imidazo [1,2-b][1,2,4]triazin-6-yl)phenyl)pyrrolidine-1-carboxamide] | – | 3980 to 15800 | – | – | – |
| O=C(Nc1ccc(F)c(-c2cn3nc(N4CCCCC4)cnc3n2)c1)N1CCCC1 [Example 4, N-(4-fluoro-3-(2-(piperidin-1-yl)imidazo[1,2-b][1,2,4]triazin-6-yl)phenyl)pyrrolidine-1-carboxamide] | 20 to 251 | – | 5.01 to 631 | 10 to 83 (≈ 4.09 to 34 µg/mL) | – |
| O=C(Nc1ccc(F)c(-c2cn3nc(-c4ccc(CN5CCOCC5)cc4)cnc3n2)c1)N1CCCC1 [Example 18, N-(4-fluoro-3-(2-(4-(morpholinomethyl)phenyl)imidazo[1,2-b] [1,2,4]triazin-6-yl)phenyl)pyrrolidine-1-carboxamide] | – | 3980 to 15800 | 5.01 to 631 | 1 to 6 (≈ 0.502 to 3.01 µg/mL) | – |
| O=C(Nc1ccc(F)c(-c2cn3nc(N4CCCC4)cnc3n2)c1)N1CCCC1 [Example 3, N-(4-fluoro-3-(2-(pyrrolidin-1-yl)imidazo[1,2-b][1,2,4]triazin-6-yl)phenyl)pyrrolidine-1-carboxamide] | 20 to 251 | – | 5.01 to 631 | 10 to 83 (≈ 3.95 to 32.8 µg/mL) | – |
| O=C(Nc1ccc(F)c(-c2cn3nc(-c4ccc(O)cc4)cnc3n2)c1)N1CCCC1 [Example 51, N-(4-fluoro-3-(2-(4-hydroxyphenyl)imidazo [1,2-b][1,2,4]triazin-6-yl)phenyl)pyrrolidine-1-carboxamide] | – | 3980 to 15800 | 5.01 to 631 | – | – |
| O=C(Nc1ccc(F)c(-c2cn3nc(-c4cccc(CN5CCOCC5)c4)cnc3n2)c1)N1CCCC1 [Example 19, N-(4-fluoro-3-(2-(3-(morpholinomethyl)phenyl)imidazo[1,2-b] [1,2,4]triazin-6-yl)phenyl)pyrrolidine-1-carboxamide] | – | 3980 to 15800 | 5.01 to 631 | 1 to 6 (≈ 0.502 to 3.01 µg/mL) | – |
| C[C@@H]1CN(c2cnc3nc(-c4cc(NC(=O)N5CCCC5)ccc4F)cn3n2)C[C@H](C)O1 (single isomer, unassigned) [Example 6] | 20 to 251 | – | 5.01 to 631 | 10 to 83 (≈ 4.39 to 36.5 µg/mL) | – |
| CCOC(=O)Nc1ccc(F)c(-c2cn3nc(N4CCOCC4)cnc3n2)c1 [Example 52, ethyl (4-fluoro-3-(2-morpholinoimidazo [1,2-b][1,2,4]triazin-6-yl)phenyl)carbamate] | – | – | 5.01 to 631 | – | > 50100 |
| CC1CN(c2cnc3nc(-c4cc(NC(=O)N5CCCC5)ccc4F)cn3n2)CCO1 (racemic) [Example 5, (+,−)-N-(4-fluoro-3-(2-(2-methylmorpholino)imidazo[1,2-b][1,2,4]triazin-6-yl)phenyl)pyrrolidine-1-carboxamide] | 20 to 251 | – | 5.01 to 631 | 10 to 83 (≈ 4.25 to 35.3 µg/mL) | – |
| O=C(Nc1ccc(F)c(-c2cn3nc(C4CCOCC4)cnc3n2)c1)N1CCCC1 [Example 15, N-(4-fluoro-3-(2-(tetrahydro-2H-pyran-4-yl)imidazo[1,2-b] [1,2,4]triazin-6-yl)phenyl)pyrrolidine-1-carboxamide] | – | – | 5.01 to 631 | 100 to 416 (≈ 41 to 171 µg/mL) | – |
| O=C(Nc1ccc(F)c(-c2cn3nc(-c4ccc(OCCN5CCOCC5)cc4)cnc3n2)c1)N1CCCC1 [Example 17, N-(4-fluoro-3-(2-(4-(2-morpholinoethoxy)phenyl)imidazo[1,2-b][1,2,4]triazin-6-yl)phenyl) pyrrolidine-1-carboxamide] | – | – | 5.01 to 631 | 1 to 6 (≈ 0.532 to 3.19 µg/mL) | – |
| O=C(Nc1ccc(F)c(-c2cn3nc(-c4ccccn4)cnc3n2)c1)N1CCCC1 [Example 35, N-(4-fluoro-3-(2-(pyridin-2-yl)imidazo[1,2-b] [1,2,4]triazin-6-yl)phenyl)pyrrolidine-1-carboxamide] | – | – | 5.01 to 631 | 10 to 83 (≈ 4.03 to 33.5 µg/mL) | – |
| O=C(Nc1ccc(F)c(-c2cn3nc(CCCO)cnc3n2)c1)N1CCCC1 [Example 25, N-(4-fluoro-3-(2-(3-hydroxypropyl)imidazo [1,2-b][1,2,4]triazin-6-yl)phenyl)pyrrolidine-1-carboxamide] | – | – | 5.01 to 631 | 100 to 416 (≈ 38.4 to 160 µg/mL) | – |
| COc1ccc(CNc2cnc3nc(-c4cc(NC(=O)N5CCCC5)ccc4F)cn3n2)cc1 [Example 50, N-(4-fluoro-3-(2-((4-methoxybenzyl)amino)imidazo[1,2-b][1,2,4]triazin-6-yl)phenyl) pyrrolidine-1-carboxamide] | – | 3980 to 15800 | 5.01 to 631 | – | – |
